What all share (format): cell-based
For assay [1], the system named is Staphylococcus aureus 209P. In words: Minimum inhibitory concentration, serial dilution on nutrient agar. Particulars: 37° C., 18 hours incubation.
Assay [2] deals with Staphylococcus epidermidis 109. Described as above.
The next assay deals with Bacillus anthracis. Kind of assay: microbe, parasite or virus in culture. Particulars: 18 h.
Assay [3] deals with Bacillus subtilis PCI 219. Kind of assay: Minimum inhibitory concentration, serial dilution on nutrient agar. Particulars: PCI219, 37° C., 18 hours incubation.
For assay [4], the system named is Bacillus subtilis NRRL B-558. The assay is described as above. The conditions noted are these: NRRLB558, 37° C., 18 hours incubation.
Assay [5] has as its system Bacillus cereus ATCC 10702. Described as above.
For the next assay, the system named is Escherichia coli NIHJ. Described as above.
In assay [6] the test system is Escherichia coli K-12 R 388. The assay is described as above. The conditions noted are these: K12R388, 18 h.
Assay [7] concerns Escherichia coli K-12 C 600R/35. Described as above. Particulars: K12C600R/35, 37° C., 18 hours incubation. An excerpt:
(§1) The minimum inhibitory concentration (mcg/ml) of 1-N-[(S)-4-amino-2-hydroxybutyryl]-5,3',4'-trideoxykanamycin B (abbreviated as AHB-trideoxyKMB), 1-N-[(RS)-3-amino-2-hydroxypropionyl]-5,3',4'-trideoxykanamycin B (abbreviated as AHP-trideoxy-KMB) and 1-N-[(S)-4-amino-2-hydroxybutyryl]-5,3',4',6"-tetradeoxykanamycin B (abbreviated as AHB-tetradeoxyKMB) of the formula (II) according to this invention as well as of the new compound 5,3',4',6"-tetradeoxykanamycin B (abbreviated as tetradeoxyKMB) of the formula (III) according to this invention against various microorganisms were determined according to serial dilution method on a nutrient agar medium at 37° C., the estimation being made after 18 hours incubation. For comparison purpose, the minimum inhibitory concentrations of habekacin were also determined in the same manner as stated above.
(§2) The minimum inhibitory concentrations (mcg/ml) of 1-N-[(S)-4-amino-2-hydroxybutyryl]-5,3',4'-trideoxy-6'-N-methylkanamycin B (abbreviated as AHB-trideoxyMKMB), 1-N-[(RS)-3-amino-2-hydroxypropionyl]-5,3',4'-trideoxy-6'-N-methylkanamycin B (abbreviated as AHP-trideoxyMKMB) and 1-N-[(S)-5-amino-2-hydroxyvaleryl]-5,3',4'-trideoxy-6'-N-methylkanamycin B (abbreviated as AHV-trideoxyMKMB) of the formula (IV) according to this invention as well as of the new compound 5,3',4'-trideoxy-6'-N-methylkanamycin B (abbreviated as trideoxyMKMB) of the formula (V) according to this invention against various microorganisms were determined according to serial dilution method on a nutrient agar medium at 37° C., the estimation being made after 18 hours incubation. For comparison purpose, the minimum inhibitory concentrations of 1-N-[(S)-4-amino-2-hydroxybutyryl]-3',4'-dideoxykanamycin B (ie. habekacin) were also determined in the same manner as stated above.

Assay [8] relates to Escherichia coli K-12 J5R 11-2. The description is as above. Particulars: K12J5R112, 37° C., 18 hours incubation.
Description: as §1, §2

The subject of assay [9] is Escherichia coli K-12 ML 1630. The assay is described as above. Particulars: K12ML1630, 37° C., 18 hours incubation.
Description: as §1, §2

The test system of assay [10] is Shigella flexneri 4b JS11811. Described as above. Particulars: 4BJS11811, 37° C., 18 hours incubation.
Description: as §1, §2

A further assay deals with Shigella sonnei JS11746. The description is as above. Particulars: 37° C., 18 hours incubation.
Description: as §1, §2

In assay [11] the test system is Escherichia coli K-12 ML 1410 R81. The description is as above. The conditions noted are these: 18 h.
Assay [12] deals with Escherichia coli K-12 LA 290 R55. Described as above. Particulars: K12LA290R55, 18 h.
In the next assay the test system is Escherichia coli W677. The assay is described as above.
The test system of another assay is Salmonella typhi T-63. The assay is described as above. The conditions noted are these: Salmonella enterica, 18 h.
The next assay deals with Providencia 2991. The assay is described as above. Particulars: 37° C., 18 hours incubation.
Assay [13] deals with Pseudomonas aeruginosa No. 12. The description is as above.
In assay [14] the test system is Pseudomonas aeruginosa H11. Described as above.
In assay [15] the test system is Pseudomonas aeruginosa ROS134/PU21. Described as above. The conditions noted are these: ROS134/PU21, 18 h.
Another assay relates to bacteria. In words: Antibacterial activity (stated in words).
[16] abbreviates: Staphylococcus epidermidis, 109, nutrient agar, 37° C., 18 hours incubation, read-out: MIC.
The mark [17] stands for this setting: ATCC10702, nutrient agar, 37° C., 18 hours incubation, read-out: MIC.
The mark [18] stands for this setting: nutrient agar, 37° C., 18 hours incubation, read-out: MIC.
Where [19] appears, read: W677, nutrient agar, 37° C., 18 hours incubation, read-out: MIC.
The mark [20] stands for this setting: NO.12, nutrient agar, 37° C., 18 hours incubation, read-out: MIC.
[21] abbreviates: H11, nutrient agar, 37° C., 18 hours incubation, read-out: MIC.

Structures are written as SMILES. Converted amounts (≈) assume the structure as drawn. Where two headings read alike, the source gives them in different places.

With `CNC[C@@H]1CC[C@@H](N)[C@@H](O[C@H]2C[C@@H](O[C@H]3O[C@H](CO)[C@@H](O)[C@H](N)[C@H]3O)[C@H](NC(=O)[C@@H](O)CCCN)C[C@@H]2N)O1` [AHV-trideoxyMKMB, 1-N-[(S)-5-amino-2-hydroxyvaleryl]-5,3',4'-trideoxy-6'-N-methylkanamycin B], the MIC in assay [1] is 0.2 µg/mL (≈ 0.354 µM); in assay [2] (setting [16]), less than 0.2 µg/mL; against Bacillus anthracis it was less than 0.2 µg/mL; in [3] it was less than 0.2 µg/mL; in assay [4], less than 0.2 µg/mL; in [5] (ATCC10702, 18 h), 1.56 µg/mL (≈ 2.76 µM). In addition, the MIC against Escherichia coli NIHJ (18 h) turned out to be 1.56 µg/mL (≈ 2.76 µM); in assay [6], 1.56 µg/mL (≈ 2.76 µM); in assay [7], 1.56 µg/mL (≈ 2.76 µM); in [8] it was 3.13 µg/mL (≈ 5.54 µM); in assay [9], 3.13 µg/mL (≈ 5.54 µM); in assay [10], 1.56 µg/mL (≈ 2.76 µM). Moreover, the MIC was 6.25 µg/mL (≈ 11.1 µM) against Shigella sonnei JS11746; 3.13 µg/mL (≈ 5.54 µM) in [11]; 3.13 µg/mL (≈ 5.54 µM) in assay [12]; 1.56 µg/mL (≈ 2.76 µM) against Escherichia coli W677 (W677, 18 h); 3.13 µg/mL (≈ 5.54 µM) in the assay on Salmonella typhi T-63; 25 µg/mL (≈ 44.3 µM) with Providencia 2991. In addition, the MIC in assay [13] (NO.12, 18 h) stood at 3.13 µg/mL (≈ 5.54 µM); in [14] (H11, 18 h) it was 6.25 µg/mL (≈ 11.1 µM); in assay [15], 50 µg/mL (≈ 88.5 µM).

In the case of `C[C@H]1O[C@H](O[C@@H]2C[C@H](O[C@H]3O[C@H](CN)CC[C@H]3N)[C@@H](N)C[C@H]2N)[C@H](O)[C@@H](N)[C@@H]1O` [TetradeoxyKMB, 5,3',4',6"-tetradeoxykanamycin B], the MIC is 3.13 µg/mL (≈ 7.46 µM) in assay [1]; 6.25 µg/mL (≈ 14.9 µM) in [2] (setting [16]); 0.39 µg/mL (≈ 0.93 µM) in the assay on Bacillus anthracis; less than 0.2 µg/mL in assay [3]; less than 0.2 µg/mL in assay [4]; 3.13 µg/mL (≈ 7.46 µM) in [5] (setting [17]). In addition, the MIC was found to be 6.25 µg/mL (≈ 14.9 µM) in the assay on Escherichia coli NIHJ (setting [18]); 3.13 µg/mL (≈ 7.46 µM) in [6]; 6.25 µg/mL (≈ 14.9 µM) in assay [7]; 6.25 µg/mL (≈ 14.9 µM) in [8]; 12.5 µg/mL (≈ 29.8 µM) in assay [9]; 25 µg/mL (≈ 59.6 µM) in assay [10]. Further, the MIC against Shigella sonnei JS11746 is 12.5 µg/mL (≈ 29.8 µM); in assay [12], greater than 100 µg/mL; with Escherichia coli W677 (setting [19]), 6.25 µg/mL (≈ 14.9 µM); in the assay on Salmonella typhi T-63, 12.5 µg/mL (≈ 29.8 µM); against Providencia 2991, greater than 100 µg/mL; in assay [13] (setting [20]) it was 25 µg/mL (≈ 59.6 µM). The MIC in assay [14] (setting [21]) is 25 µg/mL (≈ 59.6 µM); in assay [15], greater than 100 µg/mL. For the same compound, the antibacterial activity entry in the assay with bacteria is given as “significantly active against some kinds of bacteria”.

For `CNC[C@@H]1CC[C@@H](N)[C@@H](O[C@H]2C[C@@H](O[C@H]3O[C@H](CO)[C@@H](O)[C@H](N)[C@H]3O)[C@H](N)C[C@@H]2N)O1` [TrideoxyMKMB, 5,3',4'-trideoxy-6'-N-methylkanamycin B], the MIC in [1] was 1.56 µg/mL (≈ 3.47 µM); in [2] (Staphylococcus epidermidis, 109, 18 h), 6.25 µg/mL (≈ 13.9 µM); against Bacillus anthracis it was 0.78 µg/mL (≈ 1.74 µM); in assay [3], less than 0.2 µg/mL; in [4] it was 0.78 µg/mL (≈ 1.74 µM); in assay [5] (setting [17]) it was 12.5 µg/mL (≈ 27.8 µM). The MIC turned out to be 12.5 µg/mL (≈ 27.8 µM) with Escherichia coli NIHJ (setting [18]); 12.5 µg/mL (≈ 27.8 µM) in assay [6]; 12.5 µg/mL (≈ 27.8 µM) in assay [7]; 25 µg/mL (≈ 55.6 µM) in assay [8]; 25 µg/mL (≈ 55.6 µM) in assay [9]; 25 µg/mL (≈ 55.6 µM) in assay [10]. Further, the MIC in the assay on Shigella sonnei JS11746 is 25 µg/mL (≈ 55.6 µM); in [11], 25 µg/mL (≈ 55.6 µM); in assay [12], 100 µg/mL (≈ 222 µM); with Escherichia coli W677 (setting [19]), 12.5 µg/mL (≈ 27.8 µM); in the assay on Salmonella typhi T-63, 6.25 µg/mL (≈ 13.9 µM); against Providencia 2991, greater than 100 µg/mL. The MIC is 25 µg/mL (≈ 55.6 µM) in assay [13] (setting [20]), 25 µg/mL (≈ 55.6 µM) in assay [14] (setting [21]) and greater than 100 µg/mL in assay [15]. For the same compound, in the assay with bacteria, the antibacterial activity entry is “antibacterial activity higher than that of the 5,3',4'-trideoxykanamycin B especially against some resistant strains”.
